Measured values taken from ChEMBL document CHEMBL6096680, “Development of PRC1 Inhibitors Employing Fragment-Based Approach and NMR-Guided Optimization” (J Med Chem, 2025).
Active and inactive are the calls of the source. The calls are words filed in the database; no cut-off is given here.

Key:
[1] = species on record: Homo sapiens; assay: Binding affinity to 15N-labeled RING1B (10 to 116 residues)/BMI1 (1 to 104 residues) (unknown origin) extracted from Escherichia coli BL21 (DE3) cells assessed as sum of A79, G83 and T89 chemical shift perturbations at 100 uM by NMR binding analysis
[2] = species on record: Homo sapiens; assay: Binding affinity to 15N-labeled RING1B (10 to 116 residues)/BMI1 (1 to 104 residues) (unknown origin) extracted from Escherichia coli BL21 (DE3) cells assessed as sum of A79, G83 and T89 chemical shift perturbations at 200 uM by NMR binding analysis
[3] = species on record: Homo sapiens; assay: Binding affinity to 15N-labeled RING1B (10 to 116 residues)/BMI1 (1 to 104 residues) (unknown origin) extracted from Escherichia coli BL21 (DE3) cells assessed as ratio of chemical shift perturbations at 1:2 compound concentration ration by NMR binding analysis
[4] = Binding affinity to RING1B (10 to 116 residues)/BMI1 (1 to 104 residues) (unknown origin) extracted from Escherichia coli BL21 (DE3) cells assessed as dissociation constant by ITC analysis; design: species or system Homo sapiens
[5] = (§1) Inhibition of 6His-tagged RING1B (10 to 116 residues)/BMI1 (1 to 104 residues) (unknown origin) extracted from Escherichia coli BL21 (DE3) cells preincubated with compound for 1 hrs followed by 3-(1-(4,26-dioxo-30-((3aS,4S,6aR)-2-oxohexahydro-1H-thieno[3,4-d]imidazol-4-yl)-7,10,13,16,19,22-hexaoxa-3,25-diazatriacontyl)-6-methoxy-1H-indol-4-yl)-5-(6-fluoro-1H-indol-4-yl)-4-isopropyl-1H-pyrrole-2-carboxylic acid addition and measured after 1 hrs by Alphascreen competition assay; design: species or system Homo sapiens
[6] = (§2) Inhibition of RING1B (10 to 116 residues)-BMI1 (1 to 104 residues) (unknown origin) extracted from Escherichia coli BL21 (DE3) cells using HeLa nucleosome as substrate assessed as reduction in reduction in H2AK119 ubiquitination preincubated with compound for 1 hrs followed by flag-tagged ubiquitin and substrate addition and measured after 1 hrs by Western blot analysis; design: species or system Homo sapiens
[7] = as §1, with “RING1A (7” for “RING1B (10”, “113 residues)-BMI1” for “116 residues)/BMI1”; design: species or system Homo sapiens
[8] = species on record: Homo sapiens; assay: Binding affinity to 15N-labeled RING1A (7 to 113 residues)/BMI1 (1 to 104 residues) (unknown origin) extracted from Escherichia coli BL21 (DE3) cells assessed as chemical shift perturbation by 1H-15N HSQC spectra based NMR titration analysis; conditions: dose 30-120 µM
[9] = species on record: Homo sapiens; assay: Binding affinity to 15N-labeled RING1B (10 to 116 residues)/BMI1 (1 to 104 residues) (unknown origin) extracted from Escherichia coli BL21 (DE3) cells assessed as chemical shift perturbation by 1H-15N HSQC spectra based NMR titration analysis; conditions: dose 30-120 µM
[10] = species on record: Homo sapiens; assay: Binding affinity to 15N-labeled 6His-tagged RING1B (10 to 116 residues)/PCGF1 (30 to 138 residues) (unknown origin) assessed as chemical shift perturbation by 1H-15N HSQC spectra based NMR titration analysis; conditions: dose 30-120 µM
[11] = Binding affinity to RING1A (7 to 113 residues)/BMI1 (1 to 104 residues) (unknown origin) extracted from Escherichia coli BL21 (DE3) cells assessed as dissociation constant by ITC analysis; design: species or system Homo sapiens
[12] = Binding affinity to RING1B (10 to 116 residues)/PCGF1 (30 to 138 residues) (unknown origin) assessed as dissociation constant by ITC analysis; design: species or system Homo sapiens
[13] = as §2, with “RING1A (7” for “RING1B (10”, “113 residues)/BMI1” for “116 residues)-BMI1”; design: species or system Homo sapiens
[14] = as §2, with “residues)/PCGF1 (30” for “residues)-BMI1 (1”, “138 residues)(unknown” for “104 residues) (unknown”, “origin)” for “origin) extracted from Escherichia coli BL21 (DE3) cells”; design: species or system Homo sapiens
[15] = tested on: TEX; assay: Inhibition of PRC1 in human TEX cells assessed as decrease in global H2Aub level by measuring fold change at 3.1 uM incubated for 4 days by Western blot analysis (reference value: 1); assay type: cell-based; conditions: time 4.0 day
[16] = tested on: TEX; assay: Inhibition of PRC1 in human TEX cells assessed as decrease in global H2Aub level by measuring fold change at 6.2 uM incubated for 4 days by Western blot analysis (reference value: 1); assay type: cell-based; conditions: time 4.0 day
[17] = tested on: TEX; assay: Inhibition of PRC1 in human TEX cells assessed as decrease in global H2Aub level by measuring fold change at 12.5 uM incubated for 4 days by Western blot analysis (reference value: 1); assay type: cell-based; conditions: time 4.0 day
[18] = tested on: TEX; assay: Inhibition of PRC1 in human TEX cells assessed as decrease in global H2Aub level by measuring fold change at 25 uM incubated for 4 days by Western blot analysis (reference value: 1); assay type: cell-based; conditions: time 4.0 day
[19] = tested on: TEX; assay: Downregulation of CD34 gene expression in human TEX cells at 6.2 to 50 uM incubated for 4 days by RT-qPCR analysis; assay type: functional, cell-based; conditions: dose 6.2-50 µM, time 4.0 day
[20] = tested on: TEX; assay: Upregulation of CEBPalpha gene expression in human TEX cells at 6.2 to 50 uM incubated for 4 days by RT-qPCR analysis; assay type: functional, cell-based; conditions: dose 6.2-50 µM, time 4.0 day

CC(C)c1c(-c2cc(F)cc3[nH]ccc23)[nH]c(C(=O)O)c1-c1c(Cl)ccc2[nH]ccc12
Activity [1]: 248 Hz | Activity [2]: 299 Hz | Ratio [3]: 0.83 | Kd [4]: 2000 nM | IC50 [5]: 2300 nM | IC50 [6]: 2800 nM | IC50 [7]: 2400 nM | Activity [8]: Dose-dependent-effect | Activity [9]: Dose-dependent-effect | Activity [10]: Dose-dependent-effect | Kd [11]: 1700 nM | Kd [12]: 1700 nM | IC50 [13]: 2600 nM | IC50 [14]: 1800 nM | fold change (FC) [15]: 1.7 | fold change (FC) [16]: 0.9 | fold change (FC) [17]: 0.88 | fold change (FC) [18]: 0.17 | Activity [19]: Active | Activity [20]: Active
